# In patent publication US10822315B2, “5-benzylidene-4-oxazolidinones” (NORTH CAROLINA STATE UNIVERSITY, priority 2016, dated 2020):
# Like-named read-outs stand apart in the source and are kept apart here.
# Columns and labels:
# MRSA ATCC 33591 = experiment: Broth microdilution MIC determination; format: cell-based; conditions: Staphylococcus aureus, Table 1, read-out: Antimicrobial Activity MIC
# Procedure: (§1) General Information. Methicillin-resistant Staphylococcus aureus (MRSA) strains were obtained from the Laboratory of Professor Christian Melander (NCSU) ATCC (33591, BAA 44, BAA 1685, BAA 1770, BAA 43 300) and colonies were grown on solid media as instructed. Mueller-Hinton broth (MHB, 211443-BD), tryptic soy broth (TSB, Remel: R455052) and D-glucose (CAS: 492-62-6) were purchased from Fisher Scientific. Tryptic soy agar (TSA, cat. #22091) and Linezolid (cat. # P70014) were purchased from Sigma-Aldrich. Bacteria for biofilm inhibition and dispersion assays were cultured overnight in TSBG (tryptic soy broth with 0.5% glucose supplement). All assays were run in duplicate and repeated at least two separate times for MIC assays and at least four separate times for biofilm inhibition and dispersion assays. All compounds were dissolved molecular biology grade DMSO as 100 mM stock solutions and further diluted to 10 and 1 mM stock solutions as needed. Optical densities were measured using a Thermo Scientific Genesys 20 spectrophotometer. Data for biofilm inhibition and dispersion assays was collected using a BioTek ELx808 Microplate Reader. All graphs were generated and analyzed using GraphPad Prism 7.
# Broth microdilution protocol for minimum inhibition concentration (MIC) determination. Studies were performed using the standard method prescribed by the Clinical and Laboratory Standards Institute (CLSI) M07-A8, Vol. 29 (2), which is hereby incorporated herein by reference. Briefly, fresh Mueller-Hinton broth (MHB) ˜3 ml, was inoculated (5×10^5 CFU mL^−1) with MRSA (ATCC 33591) methicillin-resistant Staphylococcus aureus. The resulting bacterial suspension was aliquoted (1 mL) into culture tubes and test compound (10 mM DMSO stock solution) was added to reach the final concentration of the interest. Bacteria not treated with the antimicrobial compound served as the control. Rows 2-12 of a 96-well microtiter plate were filled with remaining bacterial subcultures. The samples containing test compound were aliquoted (200 μL) into the first row wells of the microtiter plate (2 wells per compound). Row 1 wells were mixed 6-8 times and 100 μL was transferred down to row 2. Row 2 wells were mixed 6-8 times, followed by a 100 μL transfer from row 2 down to row 3. The rest of the rows of the plate were serially diluted in similar fashion. The plate was covered with sealing tape for 96-well plates (ThermoFisher) and incubated under stationary conditions at 37° C. A duplicate of the plate was prepared.
# MRSA ATCC BAA-44 [1] = experiment: Biofilm inhibition assay (crystal violet); format: cell-based, Staphylococcus aureus; conditions: for inhibition at 5 µM / IC50 / inhibition at 40 µM: Staphylococcus aureus; for IC50: MRSA ATCC BAA-44; for inhibition at 40 µM: Table 2; for fold reduction in biofilm inhibition activity: 7 versus 4, 8 versus 1
# Procedure: as §1
# Biofilm Inhibition Assay. Studies were performed using the standard method described in S. A. Rogers and C. Melander, Angew Chem Int Ed, 2008, 47, 5229-5231. Briefly, biofilm inhibition assays were performed by taking an overnight culture of bacterial strain and subculturing it at an OD600 of 0.01 into the necessary growth liquid medium (LB for A. baumannii, LBNS for P. aeruginosa, Stainer-Scholte medium that was supplemented with 10 μL/mL of 100× nutrient complex for B. bronchiseptica and TSB w/0.3% glucose for S. aureus) for the strain. The compound being tested was then added at a predetermined concentration and then aliquoted (100 μL) into the wells of a 96-well PVC microtiter plate (wells not used for samples are filled with 100 μL of de-ionized water). Plates were then wrapped in GLAD Press n' Seal and incubated under stationary conditions at 37° C. After 24 hours, the media was discarded from the wells and the plates were washed thoroughly with tap water. Plates were then stained with 100 μL of 0.1% solution of crystal violet (CV) and then incubated at an ambient temperature for 30 minutes. Sample plates were then washed with tap water again and the remaining stain was solubilized with 200 μL of 95% ethanol. Biofilm inhibition was quantitated by measuring the OD540 for each well by transferring 125 μL of the solubilized CV stain into a polystyrene microtiter dish for analysis. Biofilm inhibition was quantified by measuring the OD540 of each well and calculated as a percentage of the control (no compound); a negative control lane wherein no biofilm was formed served as a background and was subtracted out.
# Percent inhibition was then plotted against concentration in Prism 7. Each of the four experiments were plotted separately and analyzed by a normalized nonlinear regression. The IC50 values reported represent an arithmetic mean of the four IC50 values. Biofilm data represent four separate experiments, with each experiment performed in duplicate (average of 8 data points for each concentration tested, unless otherwise noted)
# MRSA ATCC BAA-44 [2] = experiment: Biofilm dispersion assay (crystal violet, pre-formed biofilm); format: cell-based, Staphylococcus aureus; conditions: Staphylococcus aureus; for % dispersion of pre-formed biofilm at 5 µM: MRSA ATCC BAA 44; for IC50: MRSA ATCC BAA-44
# Procedure: as §1
# Biofilm Dispersion Assay. Studies were performed using the standard method described in J. J. Richards, T. E. Ballard and C. Melander, Org Biomol Chem, 2008, 6, 1356-1363. Briefly, dispersion assays were performed by taking an overnight culture of bacterial strain and subculturing it at an OD600 of 0.01 into the necessary growth liquid medium. The resulting bacterial suspension was aliquoted (100 μL) into the wells of a 96-well PVC microtiter plate. Plates were then wrapped in GLAD Press n' Seal followed by an incubation under stationary conditions at an ambient temperature. After 24 hours, the media was discarded from the wells and the plates were washed thoroughly with tap water. Predetermined concentrations of the test compound were then made in the same medium used to initially grow the biofilms and then aliquoted (100 μL) into the wells of the 96-well PVC microtiter plate with the established biofilms. Plates were then wrapped in GLAD Press n'Seal and incubated under stationary conditions at 37° C. After 24 hours, the media was discarded from the wells and the plates were washed thoroughly with tap water. Plates were then stained with 100 μL of 0.1% solution of crystal violet (CV) and then incubated at room temperature for 30 minutes. Plates were then washed with tap water again and the remaining stain was solubilized with 200 μL of 95% ethanol. Biofilm dispersion was quantitated by measuring the OD540 for each well by transferring 125 μL of the solubilized CV stain into a polystyrene microtiter dish for analysis. Biofilm inhibition was quantified by measuring the OD540 of each well and calculated as a percentage of the control (no compound), a negative control lane wherein no biofilm was formed served as a background and was subtracted out.
# Percent dispersion was then plotted against concentration in Prism 7. Each of the four experiments were plotted separately and analyzed by a normalized nonlinear regression. The IC50 values reported represent an arithmetic mean of the four IC50 values. Biofilm data represent four separate experiments, with each experiment performed in duplicate (average of 8 data points for each concentration tested, unless otherwise noted)
# MRSA ATCC BAA-44 [3] = experiment: Broth microdilution MIC determination; format: cell-based, Staphylococcus aureus; conditions: for MIC: Staphylococcus aureus
# MRSA ATCC BAA-44 [4] = experiment: Biofilm dispersion assay (crystal violet, pre-formed biofilm); format: cell-based; conditions: Staphylococcus aureus, Table 2
# red blood cells = experiment: Lysis of red blood cells; format: cell-based; conditions: 100 μM
# [5] = MRSA ATCC BAA 44, Table 2, read-out: MIC
# [6] = MRSA ATCC BAA-44, Table 1, read-out: Antimicrobial Activity MIC
structure (smiles),measurement,setting,value
"CCCCC(Cl)(Cl)C1NC(=O)/C(=C/c2ccccc2)O1 (stereo not drawn) [Compound 6, (Z)-5-benzylidene-2-(1,1-dichloropentyl)oxazolidin-4-one]",MIC,MRSA ATCC 33591,64 µg/mL
same,inhibition at 5 µM,"MRSA ATCC BAA-44 [1]; 5 μM, MRSA ATCC BAA 44",51%
same,IC50,MRSA ATCC BAA-44 [1],3.2 µM
same,% dispersion of pre-formed biofilm at 5 µM,MRSA ATCC BAA-44 [2],14%
same,IC50,MRSA ATCC BAA-44 [2],5.3 µM
same,MIC,MRSA ATCC BAA-44 [3]; [5],64 µg/mL
same,MIC,MRSA ATCC BAA-44 [3]; [6],64 µg/mL
same,inhibition at 40 µM,MRSA ATCC BAA-44 [4],26%
"CCCCCCNC(=O)C(=O)Cc1ccc(C(F)(F)F)cc1 [Compound 9, N-hexyl-2-oxo-3-(4-(trifluoromethyl)phenyl)propanamide]",MIC,MRSA ATCC 33591,> 128 µg/mL
same,inhibition at 5 µM,"MRSA ATCC BAA-44 [1]; 5 μM, MRSA ATCC BAA 44",24%
same,IC50,MRSA ATCC BAA-44 [1],> 20 µM
same,inhibition at 40 µM,MRSA ATCC BAA-44 [1]; MRSA ATCC BAA 44,41%
same,biofilm activity (in words),MRSA ATCC BAA-44 [1]; even at 40 μM,only modest biofilm activity
same,% dispersion of pre-formed biofilm at 5 µM,MRSA ATCC BAA-44 [2],-24%
same,IC50,MRSA ATCC BAA-44 [2],> 20 µM
same,antimicrobial activity (in words),MRSA ATCC BAA-44 [3]; MRSA ATCC BAA-44,no antimicrobial activity
same,MIC,MRSA ATCC BAA-44 [3]; [5],> 128 µg/mL
same,MIC,MRSA ATCC BAA-44 [3]; [6],> 128 µg/mL
same,inhibition at 40 µM,MRSA ATCC BAA-44 [4],-6.5%
"C#CCC(Cl)(Cl)C1NC(=O)/C(=C/c2ccc(C(F)(F)F)cc2)O1 (stereo not drawn) [Compound 5, (Z)-2-(1,1-dichlorobut-3-yn-1-yl)-5-(4-(trifluoromethyl)benzylidene)oxazolidin-4-one]",MIC,MRSA ATCC 33591,16 µg/mL
same,inhibition at 5 µM,"MRSA ATCC BAA-44 [1]; 5 μM, MRSA ATCC BAA 44",64%
same,IC50,MRSA ATCC BAA-44 [1],1.9 µM
same,% dispersion of pre-formed biofilm at 5 µM,MRSA ATCC BAA-44 [2],63%
same,IC50,MRSA ATCC BAA-44 [2],6 µM
same,MIC,MRSA ATCC BAA-44 [3]; [5],16 µg/mL
same,MIC,MRSA ATCC BAA-44 [3]; [6],16 µg/mL
"CC(Cl)(Cl)C1NC(=O)/C(=C/c2ccc(C(F)(F)F)cc2)O1 (stereo not drawn) [Compound 4, (Z)-2-(1,1-dichloroethyl)-5-(4-(trifluoromethyl)benzylidene)oxazolidin-4-one]",MIC,MRSA ATCC 33591,32 µg/mL
same,inhibition at 5 µM,"MRSA ATCC BAA-44 [1]; 5 μM, MRSA ATCC BAA 44",55%
same,IC50,MRSA ATCC BAA-44 [1],3.6 µM
same,% dispersion of pre-formed biofilm at 5 µM,MRSA ATCC BAA-44 [2],50%
same,IC50,MRSA ATCC BAA-44 [2],5 µM
same,MIC,MRSA ATCC BAA-44 [3]; [5],32 µg/mL
same,MIC,MRSA ATCC BAA-44 [3]; [6],32 µg/mL
"CCCCCC1NC(=O)/C(=C/c2ccc(C(F)(F)F)cc2)O1 (stereo not drawn) [Compound 8, (Z)-2-pentyl-5-(4-(trifluoromethyl)benzylidene)oxazolidin-4-one]",MIC,MRSA ATCC 33591,16 µg/mL
same,fold reduction in biofilm inhibition activity,MRSA ATCC BAA-44 [1],5 fold
same,inhibition at 5 µM,"MRSA ATCC BAA-44 [1]; 5 μM, MRSA ATCC BAA 44",17%
same,IC50,MRSA ATCC BAA-44 [1],7.3 µM
same,inhibition at 40 µM,MRSA ATCC BAA-44 [1]; MRSA ATCC BAA 44,53%
same,MIC,MRSA ATCC BAA-44 [3]; [5],64 µg/mL
same,MIC,MRSA ATCC BAA-44 [3]; [6],16 µg/mL
"CC(C)(C)C1NC(=O)/C(=C/c2ccc(C(F)(F)F)cc2)O1 (stereo not drawn) [Compound 7, (Z)-2-(tert-butyl)-5-(4-(trifluoromethyl)benzylidene)oxazolidin-4-one]",MIC,MRSA ATCC 33591,128 µg/mL
same,fold reduction in biofilm inhibition activity,MRSA ATCC BAA-44 [1],3 fold
same,inhibition at 5 µM,"MRSA ATCC BAA-44 [1]; 5 μM, MRSA ATCC BAA 44",31%
same,IC50,MRSA ATCC BAA-44 [1],7.3 µM
same,inhibition at 40 µM,MRSA ATCC BAA-44 [1]; MRSA ATCC BAA 44,51%
same,% dispersion of pre-formed biofilm at 5 µM,MRSA ATCC BAA-44 [2],5.7%
same,IC50,MRSA ATCC BAA-44 [2],9.2 µM
same,fold reduction in antimicrobial activity,MRSA ATCC BAA-44 [3]; 7 compared with 4,4 fold
same,MIC,MRSA ATCC BAA-44 [3]; [5],128 µg/mL
same,MIC,MRSA ATCC BAA-44 [3]; [6],128 µg/mL
same,inhibition at 40 µM,MRSA ATCC BAA-44 [4],31%
"CCCCCCCCC(Cl)(Cl)C1NC(=O)/C(=C/c2ccc(C(F)(F)F)cc2)O1 (stereo not drawn) [Compound 3, (Z)-2-(1,1-dichlorononyl)-5-(4-(trifluoromethyl)benzylidene)oxazolidin-4-one]",MIC,MRSA ATCC 33591,> 128 µg/mL
same,inhibition at 5 µM,"MRSA ATCC BAA-44 [1]; 5 μM, MRSA ATCC BAA 44",68%
same,IC50,MRSA ATCC BAA-44 [1],1.7 µM
same,inhibition at 40 µM,MRSA ATCC BAA-44 [1]; MRSA ATCC BAA 44,75%
same,dose dependence of biofilm inhibition (in words),MRSA ATCC BAA-44 [1]; relative to MIC,dose-dependent biofilm inhibition at concentrations well below their MIC
same,% dispersion of pre-formed biofilm at 5 µM,MRSA ATCC BAA-44 [2],19%
same,IC50,MRSA ATCC BAA-44 [2],6.6 µM
same,red blood cells lysed,red blood cells,7%
same,antimicrobial activity (in words),MRSA ATCC BAA-44 [3]; MRSA ATCC BAA-44,completely abolished
same,MIC,MRSA ATCC BAA-44 [3]; [5],> 128 µg/mL
same,MIC,MRSA ATCC BAA-44 [3]; [6],> 128 µg/mL
same,inhibition at 40 µM,MRSA ATCC BAA-44 [4],19%
"CCCCC(Cl)(Cl)C1NC(=O)/C(=C/c2ccc(OC)cc2)O1 (stereo not drawn) [Compound 11, (Z)-2-(1,1-di-Chloropentyl)-5-(4-methoxybenzylidene)oxazolidin-4-one]",% Biofilm Inhibition (5 μM),"MRSA ATCC BAA-44 [1]; 5 μM, MRSA ATCC BAA 44",39%
same,inhibition at 5 µM,"MRSA ATCC BAA-44 [1]; 5 μM, MRSA ATCC BAA 44",< 50%
same,inhibition at 40 µM,MRSA ATCC BAA-44 [1]; MRSA ATCC BAA 44,52%
same,% dispersion of pre-formed biofilm at 5 µM,MRSA ATCC BAA-44 [2],49%
same,MIC,MRSA ATCC BAA-44 [3]; [5],> 128 µg/mL
same,inhibition at 40 µM,MRSA ATCC BAA-44 [4],58%
